Data on eleven molecules can be found in patent EP0183129A1, “Quinolonecarboxylic acid derivatives” (KYORIN PHARMACEUTICAL CO., LTD., priority 1984, dated 1986).

The subject of one data set is C. difficile I-E. The data set is described as follows: In vitro antibacterial activity, MIC (standard strain). The settings on record: Clostridioides difficile; C. difficile I-E; 10^6 cells/ml; standard strain; read-out: MIC. The class given is cell-based.
In another data set the test system is S. pneumoniae 24. As to the kind of experiment: In vitro antibacterial activity, MIC (clinical isolates). The class given is cell-based. The settings on record: Streptococcus pneumoniae.
The subject of the next data set is S. pneumoniae 28. The data set is described as above. The class given is cell-based. The settings on record: Streptococcus pneumoniae, 10^6 cells/ml, clinical isolate.
In another data set the test system is S. pneumoniae S-4288. As to the kind of experiment: In vivo antibacterial activity against systemic infection in mice. Further details: species or system mice (ICR-S). The settings on record: Streptococcus pneumoniae, S4288; mice (ICR-S); oral, an hour after intraperitoneal infection; challenge dose 7.5 x 10^4 ~ 4.8 x 10^6 cfu/mouse; read-out: ED50 S. pneumoniae S-4288. The method, then: Experiment-2 In vivo antibacterial activity against systemic infection in mice (ICR-S)
The infections were produced by intraperitoneal injection of a suspension of the bacterial culture corresponding to the germ studied. The products were administered orally at an hour after the infection.

A short description of data set [1]: Urinary and bile excretion after oral administration, bioassay by cup method. The class given is in vivo. The settings on record: rat, fasted rats, 10 mg/kg oral, Mean ± S.D. (n=5).
Data set [2] in a line: Absorption and distribution: concentration in blood and organs after oral administration, bioassay by cup method. The class given is in vivo. The settings on record: rat, rats, fasted, 10 mg/kg oral, Mean ± S.D. (n=5); for concentration at 0.5 h: 1/2 hr after administration; for concentration at 1 h: 1 hr after administration; for concentration at 2 h: 2 hr after administration; for concentration at 4 h: 4 hr after administration; for concentration at 6 h: 6 hr after administration; for concentration at 8 h: 8 hr after administration.

Setting [3] is: S. pneumoniae 24, 10^6 cells/ml, clinical isolate, read-out: MIC.
Where [4] appears, read: kidney, read-out: Concentration in organs: Kidney.
Where [5] appears, read: liver, read-out: Concentration in organs: Liver.
The mark [6] stands for this setting: lung, read-out: Concentration in organs: Lung.
Setting [7] is: serum, read-out: Concentration in organs: Serum.

A word on the MIC: it is the lowest concentration found to suppress growth. Usually ED50 stands for the dose at which the effect has come halfway, by size or by number of responders.

Converted amounts (≈) assume the structure as drawn. Where a name gives a salt, the structure may show the parent alone. Read-outs that look alike come from different tables or passages of the source.

For `NCC1CCN(c2c(F)cc3c(=O)c(C(=O)O)cn(C4CC4)c3c2F)C1` (stereo not drawn) [Example 1, 7-(3-Aminomethyl-l-pyrrolidinyl)-l-cyclopropyl-6,8-difluoro-1,4-dihydro-4-oxo-3-quinolinecarboxylic acid hydrochloride], the results for the MIC in the data set with C. difficile I-E, in the data set with S. pneumoniae 24 (setting [3]) and against S. pneumoniae 28 were 1.56 µg/mL, 0.05 µg/mL and 0.05 µg/mL, respectively.

Consider `CCNCC1CCN(c2cc3c(cc2F)c(=O)c(C(=O)O)cn3C2CC2)C1.Cl` (stereo not drawn) [Example 7, 1-Cyclopropyl-7-(3-ethylaminomethyl-1-pyrrolidinyl)-6-fluoro-1,4-dihydro-4-oxo-3-quinolinecarboxylic acid hydrochloride], for which, in the data set on C. difficile I-E, the MIC is 12.5 µg/mL.

Take `CNCC1CCN(c2c(F)cc3c(=O)c(C(=O)O)cn(C4CC4)c3c2F)C1` (stereo not drawn) [Example 8, 1-Cyclopropyl-6,8-difluoro-1,4-dihydro-7-(3-methylaminomethyl-l-pyrrolidinyl)-4-oxo-3-quinolinecarboxylic acid hydrochloride]: the MIC was 1.56 µg/mL with C. difficile I-E, 0.05 µg/mL in the data set on S. pneumoniae 24 (setting [3]) and 0.05 µg/mL against S. pneumoniae 28. In addition, in the data set on S. pneumoniae S-4288, the ED50 was determined as 16.1 mg/kg.

As to `CNCC1CCN(c2cc3c(cc2F)c(=O)c(C(=O)O)cn3C2CC2)C1` (stereo not drawn) [Example 9, 1-Cyclopropyl-6-fluoro-1,4-dihydro-7-(3-methylaminomethyl-l-pyrrolidinyl)-4-oxo-3-quinolinecarboxylic acid hydrochloride], in the data set on C. difficile I-E, the MIC was 12.5 µg/mL.

For the molecule `CCCNCC1CCN(c2c(F)cc3c(=O)c(C(=O)O)cn(C4CC4)c3c2F)C1` (stereo not drawn) [Example 10, 1-Cyclopropyl-6,8-difluoro-1,4-dihydro-4-oxo-7-(3-n-propylaminomethyl-l-pyrrolidinyl)-3-quinolinecarboxylic acid hydrochloride], the MIC in the data set with C. difficile I-E is 6.25 µg/mL.

With `CC(C)NCC1CCN(c2c(F)cc3c(=O)c(C(=O)O)cn(C4CC4)c3c2F)C1.Cl` (stereo not drawn) [Example 11, 1-Cyclopropyl-6,8-difluoro-1,4-dihydro-7-(3-isopropylaminomethyl-1-pyrrolidinyl)-4-oxo-3-quinolinecarboxylic acid hydrochloride], the MIC with C. difficile I-E was found to be 3.13 µg/mL.

Consider `CNCC1CCN(c2c(F)cc3c(=O)c(C(=O)O)cn(C4CC4)c3c2Cl)C1` (stereo not drawn) [Example 12, 8-Chloro-l-cyclopropyl-6-fluoro-1,4-dihydro-7-(3-methylaminomethyl-1-pyrrolidinyl)-4-oxo-3-quinolinecarboxylic acid hydrochloride], for which the MIC in the data set with S. pneumoniae 24 (setting [3]) and against S. pneumoniae 28 was 0.05 µg/mL in each case. Also, in the data set with S. pneumoniae S-4288, the ED50 turned out to be 6.5 mg/kg.

In the case of `CCNCC1CCN(c2c(F)cc3c(=O)c(C(=O)O)cn(C4CC4)c3c2Cl)C1` (stereo not drawn) [Example 13, 8-Chloro-l-cyclorpropyl-6-fluoro-1,4-dihydro-7-(3-ethylaminomethyl-l-pyrrolidinyl)-4-oxo-3-quinolinecarboxylic acid], the concentration at 3 h in data set [1] (bile 0 ~ 3 hr, read-out: Concentration, bile) came out at 36400 ± 9900 ng/mL; in data set [1] (urine 0 ~ 3 hr, read-out: Concentration, urine), 36100 ± 9200 ng/mL. Further, the dose excreted at 3 h in data set [1] (bile 0 ~ 3 hr, read-out: Recovery, bile) came out at 4.9 ± 1.5%; in data set [1] (urine 0 ~ 3 hr, read-out: Recovery, urine), 2.7 ± 2.1%. In addition, the dose excreted at 6 h in data set [1] (bile 0 ~ 6 hr, read-out: Recovery, bile) came out at 6.9 ± 1.4%; in data set [1] (urine 0 ~ 6 hr, read-out: Recovery, urine), 4.8 ± 1.8%. Further, the dose excreted at 24 h in data set [1] (bile 0 ~ 24 hr, read-out: Recovery, bile) stood at 12.9 ± 4.9%; in data set [1] (urine 0 ~ 24 hr, read-out: Recovery, urine), 7.4 ± 1.5%. Besides, the concentration at 6 h is 19700 ± 8000 ng/mL in data set [1] (bile 3 ~ 6 hr, read-out: Concentration, bile); 39400 ± 13300 ng/mL in data set [1] (urine 3 ~ 6 hr, read-out: Concentration, urine); 840 ± 90 ng/g in data set [2] (setting [4]); 860 ± 150 ng/g in data set [2] (setting [5]); 420 ± 50 ng/g in data set [2] (setting [6]); 100 ± 10 ng/mL in data set [2] (setting [7]). Also, the concentration at 24 h in data set [1] (bile 6 ~ 24 hr, read-out: Concentration, bile) came to 11300 ± 8300 ng/mL; in data set [1] (urine 6 ~ 24 hr, read-out: Concentration, urine), 7600 ± 3600 ng/mL. In addition, the concentration at 0.5 h was determined as 5630 ± 640 ng/g in data set [2] (setting [4]), 7780 ± 910 ng/g in data set [2] (setting [5]), 3170 ± 710 ng/g in data set [2] (setting [6]) and 1720 ± 370 ng/mL in data set [2] (setting [7]). Moreover, the concentration at 1 h in data set [2] (setting [4]) stood at 4700 ± 600 ng/g; in data set [2] (setting [5]), 5710 ± 630 ng/g; in data set [2] (setting [6]) it was 2660 ± 420 ng/g; in data set [2] (setting [7]), 1120 ± 300 ng/mL. Moreover, the concentration at 2 h in data set [2] (setting [4]) came to 2810 ± 250 ng/g; in data set [2] (setting [5]) it was 3140 ± 360 ng/g; in data set [2] (setting [6]), 1540 ± 210 ng/g; in data set [2] (setting [7]), 570 ± 80 ng/mL. For the same molecule, the concentration at 4 h in data set [2] (setting [4]) was found to be 1470 ± 250 ng/g; in data set [2] (setting [5]), 1340 ± 120 ng/g; in data set [2] (setting [6]) it was 700 ± 80 ng/g; in data set [2] (setting [7]), 230 ± 40 ng/mL. Also, the concentration at 8 h was 890 ± 400 ng/g in data set [2] (setting [4]), 1130 ± 520 ng/g in data set [2] (setting [5]), 450 ± 150 ng/g in data set [2] (setting [6]) and 140 ± 80 ng/mL in data set [2] (setting [7]). For the same molecule, the MIC in the data set on S. pneumoniae 24 (setting [3]) and against S. pneumoniae 28 was 0.05 µg/mL (≈ 0.123 µM) in each case. The ED50 in the data set on S. pneumoniae S-4288 turned out to be 2 mg/kg.

Take `NCC1CCN(c2c(F)cc3c(=O)c(C(=O)O)cn(C4CC4)c3c2Cl)C1` (stereo not drawn) [Example 14, 8-Chloro-l-cyclopropyl-6-fluoro-l,4-dihydro-7-(3-aminomethyl-l-pyrrolidinyl)-4-oxo-3-quinolinecarboxylic acid hydrochloride]: the MIC in the data set with S. pneumoniae 24 (setting [3]) and against S. pneumoniae 28 was 0.05 µg/mL in each case. The ED50 in the data set on S. pneumoniae S-4288 stood at 10 mg/kg.

Turning to `CCn1cc(C(=O)O)c(=O)c2cc(F)c(N3CCNCC3)cc21` [NFLX, Norfloxacin, reference compound], the values for the MIC with C. difficile I-E, in the data set on S. pneumoniae 24 (24) and against S. pneumoniae 28 were 50 µg/mL (≈ 157 µM), 12.5 µg/mL (≈ 39.1 µM) and 6.25 µg/mL (≈ 19.6 µM), respectively.

`CCNCC1CCN(c2c(F)cc3c(=O)c(C(=O)O)cn(CC)c3c2F)C1` (stereo not drawn) [Ref.1, 1-Ethyl-7-(3-ethylaminomethyl-1-pyrrolidinyl)-6,8-difluoro-1,4-dihydro-4-oxo-3-quinolinecarboxylic acid, reference compound]: the ED50 in the data set with S. pneumoniae S-4288 stood at 62.2 mg/kg.
